Results on one compound are retold here after US12673052B2, “Combinations for the treatment of cancer” (Exelixis, Inc., priority 2020, dated 2026).

The structures appear in SMILES notation.

One data set deals with NCI-H441. In words: Tumor growth inhibition in xenograft model. In kind it is in vivo, athymic nude mice. The method, then:
Three human tumor cell lines, NCI-H441, MDA-MB-231, and SNU-5, were selected for use in tumor xenograft studies using athymic nude, NSG and CB.17 SCID mice, respectively. Pharmacodynamic modulation of MET phosphorylation was also measured in the NCI-H441 and SNU-5 xenografts. Tumor-bearing mice were orally dosed once-daily for 14 days (qd×14), and the tumors were resected and processed for MET phosphorylation analysis by Western blot. […]

A further data set deals with AXL (Homo sapiens, UniProt P30530). In words: RTK autophosphorylation ELISA, A-172 cells stimulated with Gas6. In kind it is cell-based. More on the design: cell lines (PC-3, HUVEC, and A-172) stimulated with ligands to their respective receptors to induce autophosphorylation (MET, VEGFR2, and AXL); endogenous in cells; host or cells: A-172. As to conditions: ligand Gas6, read-out: Cellular IC50. The method, then:
The activity of Compound 1 was evaluated in cell-based assays that assessed the mechanistic effects of the compound in tumor and normal cells. Consistent with the biochemical data, Compound 1 is a potent inhibitor of cellular RTKs as assessed by analysis of receptor autophosphorylation as measured by enzyme-linked immunosorbent assay. Assays were performed using cell lines (PC-3, HUVEC, and A-172) stimulated with ligands to their respective receptors to induce autophosphorylation (MET, VEGFR2, and AXL) or a cell line (293A) transfected with an expression vector encoding the receptor of interest (MER). Inhibition of endogenous phosphorylated MET by Compound 1 in Hs 746T gastric carcinoma cells was also investigated due to the presence of the skip-splice mutation of exon 14 in the MET gene. This MET exon 14 alteration leads to increased MET stability and oncogenic activation, including constitutive MET phosphorylation. Also this mutation is known to occur in 3% of lung adenocarcinoma patients and to be sensitive to MET-targeted therapies (Frampton et al 2015).
On the technique in general: An ELISA detects its analyte on a solid surface through an enzyme-linked reagent.

The nature of data set [1]: Hepatocyte stability assay. In kind it is in vitro ADME, monkey. As to conditions: hepatocytes. The method, then: (§1) In the liver microsomal stability assay, CLint was 0.601 mL/min/g liver in mouse, 0.563 mL/min/g liver in rat, 0.315 mL/min/g liver in dog, 0.734 mL/min/g liver in monkey, and 0.639 mL/min/g liver in human. In the hepatocyte stability assay, Compound 1 CLint was 0.373 mL/min/g liver in mouse, 0.285 mL/min/g liver in rat, 1.08 mL/min/g liver in dog, 0.533 mL/min/g liver in monkey, and 0.317 mL/min/g liver in human.

Data set [2] is described as follows: Repeat-dose toxicity studies (7-day range-finding, definitive 28-day, 14-day recovery). In kind it is in vivo, dogs. The protocol: The nonclinical toxicity of Compound 1 was characterized in dose range-finding 7-day and definitive 28-day repeat-dose studies in rats and dogs, and in in vitro bacterial and mammalian genotoxicity bioassays. Compound 1 was also evaluated in definitive neurobehavioral, respiratory and cardiovascular safety pharmacology studies.

The nature of data set [3]: Liver microsomal stability assay. In kind it is in vitro ADME, dog. As to conditions: liver microsomes. The method, then: as §1
(Liver microsomes are vesicles of endoplasmic reticulum, rich in cytochrome P450 enzymes.)

A further data set has as its target CYP2D6 (Homo sapiens, UniProt P10635). In words: CYP/UGT substrate specificity (recombinant Supersomes, chemical inhibitors in human liver microsomes). In kind it is in vitro ADME. On the set-up: purchased; host or cells: recombinant Supersomes; human liver microsomes. The method, then:
Plasma PK of Compound 1 was characterized in rats and beagle dogs. Toxicokinetic (TK) evaluations of oral Compound 1 were evaluated in repeat-dose studies in rats and dogs. Plasma protein binding was determined in mouse, rat, dog, monkey, and human plasma in vitro. Biotransformation and metabolite profiling of Compound 1 were investigated in vitro using mouse, rat, dog, monkey, and human liver microsomal fractions and hepatocytes and in vivo in rats and dogs. P-glycoprotein (P-gp) and breast cancer resistance protein (BCRP) transporter interaction studies, in vitro experiments evaluating cytochrome P450 (CYP) induction and inhibition by Compound 1, and CYP and glucuronosyltransferase (UGT) substrate specificity studies of Compound 1 were also performed.

Data set [4] in a line: Liver microsomal stability assay. In kind it is in vitro ADME, monkey. As to conditions: liver microsomes. The method, then:
as §1

A short description of data set [5]: Hepatocyte stability assay. In kind it is in vitro ADME, rat. As to conditions: hepatocytes. The method, then: The mean plasma t1/2, z values were approximately 9 hours in rats and 4 hours in dogs. Interspecies scaling based on body weight to predict PK parameters in humans could not be performed because dogs (larger species) cleared Compound 1 faster than rats (smaller species). Therefore, the human PK was projected based on one species (rat). […] This apparent clearance value (CL/F) was used to predict steady-state exposure (AUC and average plasma concentration [Cavg]) in humans for the proposed first-in-human (FIH) starting dose for Study Compound 1-001.
as §1

Another data set concerns CYP2C19. The data set can be described thus: Cytochrome P450 induction (mRNA levels) in fresh primary human hepatocytes. In kind it is in vitro ADME.

Chain of CYP2D6 (P10635 whole entry): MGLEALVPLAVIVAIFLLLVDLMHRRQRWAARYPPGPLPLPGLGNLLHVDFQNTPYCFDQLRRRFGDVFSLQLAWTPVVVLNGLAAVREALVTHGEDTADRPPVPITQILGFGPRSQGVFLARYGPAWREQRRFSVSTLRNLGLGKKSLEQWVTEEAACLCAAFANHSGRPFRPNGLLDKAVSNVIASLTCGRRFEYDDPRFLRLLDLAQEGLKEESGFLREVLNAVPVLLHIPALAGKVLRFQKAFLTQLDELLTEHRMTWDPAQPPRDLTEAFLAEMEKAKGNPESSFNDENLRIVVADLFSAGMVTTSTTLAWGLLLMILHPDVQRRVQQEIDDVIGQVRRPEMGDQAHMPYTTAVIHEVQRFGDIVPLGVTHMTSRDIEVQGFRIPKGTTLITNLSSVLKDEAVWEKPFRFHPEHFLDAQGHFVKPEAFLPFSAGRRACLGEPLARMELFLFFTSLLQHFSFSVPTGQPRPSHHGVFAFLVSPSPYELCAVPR
Chain of AXL (P30530 26-894): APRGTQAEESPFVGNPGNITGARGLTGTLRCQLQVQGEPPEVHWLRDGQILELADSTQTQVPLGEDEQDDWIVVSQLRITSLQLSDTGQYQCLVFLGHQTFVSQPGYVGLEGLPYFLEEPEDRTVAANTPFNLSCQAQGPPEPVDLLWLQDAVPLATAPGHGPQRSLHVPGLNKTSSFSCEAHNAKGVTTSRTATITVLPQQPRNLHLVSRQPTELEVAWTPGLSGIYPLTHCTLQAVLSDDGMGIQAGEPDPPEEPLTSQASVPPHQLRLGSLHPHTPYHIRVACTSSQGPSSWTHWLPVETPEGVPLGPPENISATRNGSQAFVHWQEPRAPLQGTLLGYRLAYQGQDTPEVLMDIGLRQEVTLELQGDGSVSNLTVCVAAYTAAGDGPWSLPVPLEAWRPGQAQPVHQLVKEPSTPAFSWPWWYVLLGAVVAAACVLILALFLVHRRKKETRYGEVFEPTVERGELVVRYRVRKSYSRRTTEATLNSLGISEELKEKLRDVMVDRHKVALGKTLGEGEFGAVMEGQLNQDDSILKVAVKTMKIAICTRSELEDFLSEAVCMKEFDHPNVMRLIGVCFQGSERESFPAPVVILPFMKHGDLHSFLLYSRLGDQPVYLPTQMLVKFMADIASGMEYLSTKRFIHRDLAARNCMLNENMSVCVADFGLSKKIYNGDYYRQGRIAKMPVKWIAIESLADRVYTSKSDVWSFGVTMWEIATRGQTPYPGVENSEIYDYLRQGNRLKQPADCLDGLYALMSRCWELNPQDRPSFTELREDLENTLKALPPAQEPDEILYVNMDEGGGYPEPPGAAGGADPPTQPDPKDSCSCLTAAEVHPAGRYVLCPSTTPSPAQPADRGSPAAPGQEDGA

In the case of `CNC(=O)c1cc2c(Oc3ccc(NC(=O)C4(C(=O)Nc5ccc(F)cc5)CC4)cc3)ccnc2cc1OC` [Compound 1, 1-N′-(4-Fluorophenvl)-1-N-[4-[7-methoxy-6-(methylcarbamovl)quinolin-4-yl]oxyphenyl]cyclopropane-1,1-dicarboxamide], the “TGI (%)” value with NCI-H441 (3 mg/kg qd × 14 oral, p-value 0.0115) is on record as 63.3%; in the data set with NCI-H441 (10 mg/kg qd × 14 oral, p-value <0.0001), “regression”. Further, the IC50 (commonly the concentration at which inhibition is half-maximal) at AXL is 0.0034 µM. For the same compound, the CLint in [1] was determined as 0.533 mL/min/g liver; in data set [3], 0.315 mL/min/g liver; in data set [4] it was 0.734 mL/min/g liver; in data set [5], 0.285 mL/min/g liver. Also, in data set [2] (14-day non-treatment recovery period), the “reversibility of adverse findings” value is reported as “partially or completely reversible”. In addition, the Cmax (in general, the peak of the concentration-time curve) at 28 days in data set [2] (both sexes, dog, plasma, oral, 18 mg/kg/day, daily dosing for 28 days) is approximately 7 µM. The ophthalmic findings entry in data set [2] (daily for 4 weeks) is listed as “No adverse ophthalmic findings”. Besides, the QTc interval entry in data set [2] (male and female dogs, daily dosing 28 days, 18 mg/kg/day) is given as “no QTc interval prolongation”. Moreover, the cholesterol result in data set [2] (repeat-dose) is given as “increased cholesterol”. The dose-related clinical signs result in data set [2] (repeat-dose) was “hypoactivity, vomitus, and fecal changes”. Besides, the reticulocytes result in data set [2] (repeat-dose) is “transient decreases in reticulocytes”. Besides, the “nasal turbinate histologic findings” value in data set [2] (terminal sacrifice males >6 mg/kg/day, considered non-adverse) was “increased incidences and severities of mixed cell inflammation and osteolysis/osteogenesis”. Besides, the “role in the metabolism of Compound 1” value on CYP2D6 is recorded as “only a minor role”. The EC50 in the data set on CYP2C19 (human, fresh primary human hepatocytes, mRNA induction, read-out: half-maximal effective concentration (EC50)) was 6.21 µM. Further, the “maximal induction effect (Emax)” value with CYP2C19 (mRNA, 0.1-100 μM) was found to be 6 fold.
